Laboratory results taken from patent US20220315572A1, “SUBSTITUTED CYANOPYRROLIDINES WITH ACTIVITY AS USP30 INHIBITORS” (MISSION THERAPEUTICS LIMITED, priority 2019, published 2022).
Like-named read-outs stand apart in the source and are kept apart here.

Key:
[1] = target: T1, USP30 (Homo sapiens, UniProt Q70CQ3); experiment: USP30 biochemical IC50 assay (fluorescence polarisation)
T1 construct: purchased Boston Biochem E582
T1 sequence (Q70CQ3 57-517 limits assumed): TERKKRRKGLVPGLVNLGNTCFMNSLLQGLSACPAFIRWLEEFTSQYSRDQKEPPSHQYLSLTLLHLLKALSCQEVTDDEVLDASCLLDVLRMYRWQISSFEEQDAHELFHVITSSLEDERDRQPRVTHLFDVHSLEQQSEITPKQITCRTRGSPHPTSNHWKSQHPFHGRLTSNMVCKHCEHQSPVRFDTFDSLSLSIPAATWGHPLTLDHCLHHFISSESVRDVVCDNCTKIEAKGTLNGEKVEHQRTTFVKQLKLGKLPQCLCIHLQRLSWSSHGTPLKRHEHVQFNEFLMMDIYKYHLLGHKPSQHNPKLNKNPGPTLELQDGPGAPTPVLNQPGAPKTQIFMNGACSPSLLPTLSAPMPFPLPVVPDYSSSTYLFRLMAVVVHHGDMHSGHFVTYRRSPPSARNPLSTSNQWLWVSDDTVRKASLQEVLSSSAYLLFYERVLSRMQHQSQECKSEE
Description: Dilution plates were prepared at 21 times the final concentration (2100 μM for a final concentration of 100 μM) in 50% DMSO in a 96-well polypropylene V-bottom plate (Greiner #651201). A typical 8-point dilution series would be 100, 30, 10, 3, 1, 0.3, 0.1, 0.03 μM final. Reactions were performed in duplicate in black 384 well plates (small volume, Greiner 784076) in a final reaction volume of 21 μl. Either […] of 50% DMSO or diluted compound was added to the plate. USP30 (Boston Biochem #E582) was diluted in reaction buffer (40 mM Tris, pH 7.5, 0.005% Tween 20, 0.5 mg/ml BSA, 5 mM beta-mercaptoethanol) to achieve a final assay concentration of 4 nM, and 10 μl of diluted USP30 was added to the compound. Enzyme and compound were incubated for 30 min at room temp. Reactions were initiated by the addition of 50 nM of TAMRA labelled peptide linked to ubiquitin via an iso-peptide bond as fluorescence polarisation substrate. Reactions were read immediately after addition of substrate and following a 2-hour incubation at room temperature. Readings were performed on a Pherastar Plus (BMG Labtech). λ Excitation 540 nm; λ Emission 590 nm.

[2] = test system: USP2, USP10, USP16, USP21, USP22, USP25, USP28, USP35, USP46; experiment: DUB biochemical IC50 assays, nine DUBs; conditions: for fold more potent against USP30 than against the nine DUBs, minimum: lowest of USP2, USP10, USP16, USP21, USP22, USP25, USP28, USP35, USP46; for DUB selectivity preference for USP30 v 9 DUBs / IC50: range over the nine DUBs; for IC50: Ref. Ex. C excl. USP22, Ref. Ex. D excl. USP2, 46
[3] = target: Cathepsin B (Homo sapiens, UniProt P07858); experiment: Cathepsin IC50, cathepsin B; type: biochemical
[4] = target: T2, Cathepsin K (Homo sapiens, UniProt P43235); experiment: Cathepsin IC50, cathepsin K; type: biochemical
T2 sequence (P43235 115-329): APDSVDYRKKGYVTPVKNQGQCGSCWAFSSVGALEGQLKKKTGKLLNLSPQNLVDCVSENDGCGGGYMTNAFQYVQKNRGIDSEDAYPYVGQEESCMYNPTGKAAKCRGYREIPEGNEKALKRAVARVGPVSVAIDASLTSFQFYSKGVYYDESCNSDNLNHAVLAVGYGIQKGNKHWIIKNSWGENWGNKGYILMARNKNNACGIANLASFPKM

[5] = target: Cathepsin L (Homo sapiens, UniProt P07711); experiment: Cathepsin IC50, cathepsin L; type: biochemical
Chain of Cathepsin L (P07711 114-333, species assumed): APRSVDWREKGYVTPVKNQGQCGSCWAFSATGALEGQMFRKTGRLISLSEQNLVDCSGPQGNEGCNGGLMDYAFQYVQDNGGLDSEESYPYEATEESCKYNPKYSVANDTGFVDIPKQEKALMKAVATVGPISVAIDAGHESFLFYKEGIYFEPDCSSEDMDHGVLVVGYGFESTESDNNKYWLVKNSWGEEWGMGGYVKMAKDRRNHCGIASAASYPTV

[6] = target: Cathepsin S (Homo sapiens, UniProt P25774); experiment: Cathepsin IC50, cathepsin S; type: biochemical
Chain of Cathepsin S (P25774 115-331, species assumed): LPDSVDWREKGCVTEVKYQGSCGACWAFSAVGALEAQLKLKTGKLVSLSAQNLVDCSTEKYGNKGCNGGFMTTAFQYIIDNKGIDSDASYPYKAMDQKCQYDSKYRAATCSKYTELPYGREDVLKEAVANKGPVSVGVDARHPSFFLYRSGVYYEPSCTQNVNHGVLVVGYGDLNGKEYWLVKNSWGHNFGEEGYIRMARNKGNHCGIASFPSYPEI

[7] = target: Cathepsin V (Homo sapiens, UniProt O60911); experiment: Cathepsin IC50, cathepsin V; type: biochemical
Chain of Cathepsin V (O60911 114-334, species assumed): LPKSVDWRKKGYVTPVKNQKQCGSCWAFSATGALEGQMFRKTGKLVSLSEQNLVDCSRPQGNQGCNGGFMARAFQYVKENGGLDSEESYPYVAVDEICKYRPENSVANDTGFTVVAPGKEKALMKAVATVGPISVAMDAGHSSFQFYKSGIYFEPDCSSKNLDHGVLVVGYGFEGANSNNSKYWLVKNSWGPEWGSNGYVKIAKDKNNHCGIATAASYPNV

[8] = test system: Cathepsins B, K, L, S, V; experiment: Cathepsin IC50, range over B, K, L, S, V; type: biochemical; conditions: for Selectivity preference for USP30 v cathepsins: range over cathepsins B, S; for Selectivity preference for USP30 v cathepsins / fold more potent against USP30 than against the cathepsins, minimum: K, L; for IC50: range over the five cathepsins; for fold more potent against USP30 than against the cathepsins, minimum: lowest of cathepsins B, S and V
[9] = target: T3, UCHL1 (Homo sapiens, UniProt P09936); experiment: DUB biochemical IC50 assay, UCHL1
T3 sequence (P09936 1-223): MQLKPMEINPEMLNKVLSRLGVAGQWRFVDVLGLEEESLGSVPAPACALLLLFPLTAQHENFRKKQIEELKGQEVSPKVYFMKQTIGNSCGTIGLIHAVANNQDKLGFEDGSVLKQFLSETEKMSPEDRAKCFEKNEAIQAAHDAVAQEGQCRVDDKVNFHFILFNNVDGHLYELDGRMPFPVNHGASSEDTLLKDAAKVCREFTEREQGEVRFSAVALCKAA

[10] = target: T4, Endogenous USP30 (Homo sapiens, UniProt Q70CQ3); experiment: USP30 endogenous cellular target engagement western blot assay (Cell TE WB); type: cell-based; conditions: Hela cells stably overexpressing YFP-Parkin, 1 hour
T4 construct: USP30 endogenous cellular target engagement western blot (WB) assay; endogenous in cells; host or cells: HeLa stably overexpressing YFP-Parkin
T4 sequence (Q70CQ3 1-517): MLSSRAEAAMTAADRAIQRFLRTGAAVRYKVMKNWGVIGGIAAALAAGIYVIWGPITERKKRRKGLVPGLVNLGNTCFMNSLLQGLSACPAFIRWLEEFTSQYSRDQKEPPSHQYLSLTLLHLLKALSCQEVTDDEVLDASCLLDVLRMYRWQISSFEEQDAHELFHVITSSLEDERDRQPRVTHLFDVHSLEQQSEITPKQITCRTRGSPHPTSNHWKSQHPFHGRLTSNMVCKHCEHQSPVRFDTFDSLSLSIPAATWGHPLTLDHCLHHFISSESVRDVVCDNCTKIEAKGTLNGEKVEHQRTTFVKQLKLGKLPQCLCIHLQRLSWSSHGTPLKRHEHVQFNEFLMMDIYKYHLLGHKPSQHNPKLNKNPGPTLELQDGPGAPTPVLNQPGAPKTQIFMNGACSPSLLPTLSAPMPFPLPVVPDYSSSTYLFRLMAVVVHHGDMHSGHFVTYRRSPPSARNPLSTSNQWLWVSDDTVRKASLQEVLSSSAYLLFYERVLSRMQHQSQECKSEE
Description: Hela cells stably overexpressing YFP-Parkin were seeded into 6 well dishes. Once adhered, cells were treated with appropriate concentrations of test compounds or vehicle control for 1 hour at 37° C., 5% CO2. Whole cell lysates were prepared by scraping the cells into cold PBS, centrifuging and lysing in lysis buffer (50 mM Tris-base, pH 7.5, 50 mM NaCl, 1% NP-40/Igepal CA-630, 2 mM MgCl2, 10% Glycerol, 5 mM beta-mercaptoethanol, cOmplete mini tablets EDTA free (Roche), PhosStop tablets (Roche)) for 10 mins. The equivalent of 20 μg of protein from the cleared cell lysate was incubated with a final conc of 2.5 μM HA-Ahx-Ahx-Ub-VME probe at room temperature. The reaction was stopped by addition of 5×SDS sample loading buffer and proteins separated by SDS PAGE and western blotting. USP30 was detected using an anti-USP30 Sheep S746D antibody (MRC PPU Reagents and Services) and a rabbit anti sheep secondary IgG (H+L) horseradish peroxidase conjugated (Thermo #31480) and visualised using ECL reagent (GE #RPN2109) on a GE LAS4000 imager. Target engagement was measured by quantitation of the bands corresponding to USP30 and USP30 bound to the Ub-VME probe and expression of this proportion compared to vehicle treated control.
Cell TE WB: USP30 endogenous cellular target engagement western blot (WB) assay. Assays the activity of compounds against USP30 in cells using an irreversible activity probe to monitor USP30 activity.

[11] = Reference Examples, read-out: USP30 IC50
[12] = USP30 biochemical IC50 assay, exemplary compounds, read-out: IC50

SMILES | IC50 [1, 11] [µM] | fold more potent against USP30 than against the nine DUBs, minimum [2] [fold] | DUB selectivity preference for USP30 v 9 DUBs [2] | IC50 [2] [µM] | IC50 [3] [µM] | IC50 [4] [µM] | IC50 [5] [µM] | IC50 [6] [µM] | IC50 [7] [µM] | Selectivity preference for USP30 v cathepsins [8] | IC50 [8] [µM] | fold more potent against USP30 than against the cathepsins, minimum [8] [fold] | IC50 ([1]; read-out: DUB IC50 (μM) USP30) [µM] | IC50 [9] [µM] | fold more potent against USP30 than UCHL1 [9] [fold] | IC50 [1, 12] [µM] | DUB selectivity preference for USP30 v UCHL1 [9] | EC50 [10] [µM]
COc1cccc(-c2cc(C(=O)N[C@@H]3CCN(C#N)C3)on2)c1 [A, reference compound] | 0.07 | 2.7 | 2.7-141 | 0.19 to 9.9 | 4.5 | 0.79 | 2.8 | 8.8 | 5.8 | 11-126 | 0.79 to 8.8 | – | – | – | – | – | – | –
N#CN1CCC(NC(=O)c2cc(-c3cccc(Cl)c3)no2)C1 (stereo not shown) [B, reference compound] | 0.044 | 8 | 8-232 | 0.35 to 10.2 | 2.9 | 1.1 | 0.79 | 2.3 | 4.2 | 18-95 | 0.79 to 4.2 | 18 | – | – | – | – | – | –
C[C@H]1CN(C#N)C[C@@H]1NC(=O)c1cnc(-c2ccccc2)s1 [C, reference compound] | 0.026 | 0.96 | 0.96-342 | 0.025 to 8.9 | 4.8 | 2.4 | 1.5 | 5.9 | 4 | 58-227 | 1.5 to 5.9 | 58 | – | – | – | – | – | –
N#Cc1cccc(-c2ccn3c(C(=O)N[C@@H]4CCN(C#N)C4)cnc3c2)c1 [D] | 0.041 | 4.6 | 4.6-124 | 0.19 to 5.1 | – | – | 2.3 | 6.9 | 3 | 56-168 | 2.3 to 6.9 | 56 | – | – | – | – | – | –
N#CN1CC[C@H](C(=O)Nc2ncc(-c3ccccc3)s2)C1 [E, reference compound] | 0.31 | – | – | – | 5.3 | 2.7 | 1 | – | – | 3.2-17 | 1 to 5.3 | 3.2 | 0.31 | 0.25 | 0.8 | – | – | –
COC[C@@H]1C[C@@H](NC(=O)c2nnc(-c3cccc(C#N)c3)o2)CN1C#N [Example 2, N-((3R,5S)-1-Cyano-5-(methoxymethyl)pyrrolidin-3-yl)-5-(3-cyanophenyl)-1,3,4-oxadiazole-2-carboxamide] | – | – | 186-8100 | ≥ 6.9 | > 300 | 113 | 32.8 | > 300 | > 300 | 880-8100 | 32.8 to 300 | – | – | > 300 | – | 0.037 | 8100 | 0.089
COc1ccc(C#N)cc1-c1nnc(C(=O)N[C@@H]2C[C@@H](C)N(C#N)C2)o1 [Example 5, 5-(5-Cyano-2-methoxyphenyl)-N-((3R,5R)-1-cyano-5-methylpyrrolidin-3-yl)-1,3,4-oxadiazole-2-carboxamide] | – | – | 360-8800 | ≥ 12.4 | > 300 | 24.5 | > 300 | > 300 | 162 | 720-8800 | 24.5 to 300 | – | – | > 300 | – | 0.034 | 8800 | 0.072
N#CN1CCC(C(=O)Nc2nnc(-c3ccccc3)s2)C1 (stereo not shown) [F, reference compound] | 0.7 | – | – | – | 9.8 | 0.86 | 0.24 | 2.1 | 0.82 | 0.34-14 | 0.24 to 9.8 | 0.34 | – | 3.2 | 4.6 | – | 4.6 | –
CC1CC(C(=O)Nc2ncc(-c3ccccc3)s2)CN1C#N (stereo not shown) [G, reference compound] | 4.4 | – | – | – | – | – | – | – | – | – | – | – | 4.4 | 6.8 | 1.5 | – | – | –
